Earlier results in patent publication US6342488B1, “Phosphonorisperidone and sulforisperidone compositions and methods” (priority 1998, dated 2002).

Settings: condition associated with torsades de pointes

Row | Compound | prolongation of QT interval
1 | Cc1nc2n(c(=O)c1CCN1CCC(c3noc4cc(F)ccc34)CC1)CCCC2 [risperidone, Risperidone] | implicated in a prolongation of QT interval
2 | Cc1nc2n(c(=O)c1CCN1CCC(c3noc4cc(F)ccc34)CC1)CCCC2O (centres unmarked) [hydroxyrisperidone, 9-hydroxyrisperidone] | implicated in a prolongation of QT interval
